Laboratory results published in patent US20220233523A1, “ANTIBIOTIC POTENTIATION FOR NONTUBERCULOUS MYCOBACTERIAL DISEASE” (priority 2019, published 2022).
“And” between values parts separate entries of the source, which are not always exact repeats. Identical values can stand only once. Marks after values point to notes of the source that are not given here.

Experiments:
MAH104 biofilms = format: cell-based, Mycobacterium avium subsp hominissuis 104 (MAH104); settings: for metabolized by biofilm cultures: Biolog PM1/PM2A plates; for lower capacity of biofilms to use the substrate compared with planktonic cultures: O.D.590 nm, biofilm vs planktonic; for Biofilm (metabolite used): Biolog PM1/PM2A substrates, 7 days at 37° C., end-point assay
Procedure: (§1) Metabolic phenotype study was performed with planktonic and biofilm cultures using the 96-well plates PM1 and PM2A (BIOLOG™, Hayward, Calif.). The assays with planktonic cells and biofilms were made at the same time. Each plate contains carbon substrates and one negative control well, in which the bacteria is tested without any substrate. The tests with planktonic and biofilm cultures were performed at the same time and the culture inoculum have the same number of passages. […] The experiments were made as an end-point assay.
The cultures of biofilms were established for 7 days in regular polystyrene 96 well plates, not in PM Biolog plates, as described above with a minor difference. […] (total of 14 days of biofilm incubated at 37° C.). To obtain spectrophotometric measurements from biofilm cultures (O.D.590 nm), the plate was centrifuged for 20 minutes at 3500 rpm at 20° C., which reduce bacteria interference with the readings, and biofilm supernatant was transferred to a new 96 well plates for O.D.590 nm measurement.
(§2) Experiments were performed three times as an end-point assay. If planktonic and/or biofilm cultures were able to metabolize a specific metabolite substrate, electrons from NADH reduce the Redox dye in an irreversible reaction that generates a purple color in the PM plate wells. The signal (+) and (−) indicates, respectively, whether a purple color was produced or not. Abiotic reductions of the Redox dye were assessed through adding bacteria-free GN/GP-IF-0a fluid in the wells. Negative control corresponds to the wells without any metabolic substrate.

[1] = test system: planktonic MAH104 cultures; format: cell-based, Mycobacterium avium subsp hominissuis 104 (MAH104); settings: for Planktonic (metabolite used): Biolog PM1/PM2A plates, 7 days at 37° C., end-point assay
Procedure: as §1
To prepare the inoculum of planktonic cells for PM plates, MAH104 was cultivated in 7H9 medium with 10% OADC and 0.05% of tween20. After the cells reached a mid-logarithmic phase (O.D. at 595 nm=0.3 to 0.6), the cultures were harvested and washed three times with deionized water (centrifugation conditions; 3500 rpm for 20 minutes at 20° C.) and incubated in water for 24 hours at 25° C. as a starvation step. […] A volume of 100 μl of this final bacteria suspension was inoculated into the wells of PM1 and PM2A plates. These plates were incubated for 7 days at 37° C. and after the incubation the O.D. at 590 nm of the plates were measured.
as §2

[2] = test system: MAH (strain 104) in established biofilms; test: Treatment of established MAH biofilms with antibiotics and metabolites (CFU); format: cell-based, Mycobacterium avium subsp hominissuis 104 (MAH104); settings: for CFU/ml at 14 days / numbers of bacteria in biofilms: established biofilms; for CFU/ml at 14 days: clarithromycin 16 μg/ml, amikacin 4 μg/ml, 0.05% propionic or butyric acid, 0.2% glycerol, none 4.2 +/− 0.5 × 10^8; for numbers of bacteria in biofilms: antibiotic alone or co-treatment
Procedure: To assess the antibiotic tolerance of MAH biofilms to amikacin (4 μg/ml) and clarithromycin (16 μg/ml), biofilms were formed for 14 days as described herein. […] As a negative control, biofilms were incubated only with non-supplemented 7H9 without any antibiotics. […] Subsequently, 100 μl of 0.02% of Triton X-100 (final concentration 0.01%) was added to the established biofilms to mix, dilute and perform CFU analysis with the entire population of biofilms (attached and unattached).
Mycobacteria biofilms were first established and then treated or not treated with antibiotics. In parallel, biofilms were also co-treated with antibiotics and the targeted metabolites.

[3] = test system: M. avium 104 static biofilms; test: Static biofilm formation in the presence of metabolites (crystal violet); format: cell-based, Mycobacterium avium subsp hominissuis 104 (MAH104); settings: 1% and 0.5%, 7H9, 7 days at 37° C., crystal violet
Procedure: Static biofilms were used in the present study as described previously (Rose S J, Bermudez L E., Infection and Immunity 2014; 82:405-12). Briefly, mycobacteria were taken from 7H10 agar plates and resuspended in deionized water (10^9 of colony forming units/ml; CFU/ml). The bacterial suspension was then washed 3 times with deionized water to remove any remaining of 7H10 media (3500 rpm for 20 minutes at 20° C.). After washing, the MAH104 were resuspended in 7H9 medium without any carbon sources (OADC, glycerol, tween 20 and tween 80) (non-supplemented 7H9) and suspensions were left alone to allow clumped bacteria to settle. The top half of the suspension was transferred to new tube and adjusted to 1×10^8 CFU/ml, using visual turbidity and optical density. Suspensions were inoculated in 96-well polystyrene plates (BD, Franklin Lakes, N.J.) (100 μl for each well [or 10^7 bacteria per well]) and biofilms were formed at 37° C. for 7 days or for 14 days when indicated. […] The raw O.D. at 570 nm values were discounted from O.D. 570 nm average of blank wells (wells with only 7H9 media).
(§3) Assays with biofilms incubated with propionic acid, butyric acid, and glycerol were performed to test whether these metabolites affect the formation of biofilms. All the experiments were made in non-supplemented 7H9. The effect of these metabolites was evaluated during biofilm formation, in pre-established biofilms and in M. avium cells pre-attached to polystyrene. To evaluate the effect of targeted metabolites during biofilm formation, mycobacteria suspensions were prepared and inoculated in 96 wells polystyrene plates, as already described, and biofilms were formed in the presence or not of the short-chain fatty acids at different concentrations (1%, 0.5%, 0.1%, 0.05% and 0.01%). For glycerol, only 0.2% was used. The biofilms were formed in 7H9 media at 37° C. for 7 days. For pre-established biofilms, MAH104 was again inoculated in 96 wells plates and biofilms were formed as described herein. […] It was also evaluated whether these metabolites could promote the growth of MAH104 cells present in biofilms through the measurement of […] every 24 hours. Finally, mycobacteria suspension with low density made in 7H9 broth (containing 1×10^6 bacteria/ml) were seeded in 96 wells polystyrene plates and incubated for 7 days at 37° C. […] The growth of pre-attached bacterial cells was followed every 24 hours through O.D.595 nm. The biofilm formation was evaluated by crystal violet.
The next step was to evaluate the capacity of tested substrates to promote the growth of mycobacteria cells that are present in biofilms. […] MAH 104 cells in the presence of non-supplemented 7H9 were used as a negative control. […]

sessile MAH104 cells = test: Growth and biofilm formation of pre-attached (sessile) cells in nutrient-limited media; format: cell-based, Mycobacterium avium subsp hominissuis 104 (MAH104); settings: 0.05% fatty acids in non-supplemented 7H9, 7 days; blank 0.091±0.007
Procedure: as §3
Low mycobacterial cells density (10^6/ml) resuspended in non-supplemented 7H9 media were inoculated in 96-well plates and incubated for 7 days at 37° C. to allow the bacteria to attach into polystyrene. The supernatant was discarded to remove planktonic cells and pre-attached bacterium was incubated for 7 days in nutrient-limited media (non-supplemented 7H9). […] The growth of sessile mycobacteria was followed by O.D.595 nm measurement and biofilm formation was determined through crystal violet (O.D.570 nm), since the multiplication of bacteria cells is linked with the formation of biofilms. No growth was observed when sessile MAH104 cells were cultivated in non-supplemented 7H9 broth. […] It is also important to highlight that the O.D.570 nm value for sessile MAH104 forms incubated with non-supplemented 7H9 (O.D.570 nm=0.11±0.039) had no significant difference in comparison with the blank (O.D.570 nm=0.091±0.007) (P=0.37), showing no biofilm formation. […] FIG. 3A-D.

[4] = test system: intracellular MAH 104 in THP-1 macrophages; test: Treatment of MAH inside human THP-1 macrophages with antibiotics and metabolites (CFU); format: cell-based, Mycobacterium avium subsp hominissuis 104 (MAH104); settings: for CFU/ml of macrophage lysate, 2 h: 2 h (baseline); for CFU/ml of macrophage lysate, 4 days: clarithromycin 16 μg/ml, amikacin 4 μg/ml, none 8.2 +/− 0.3 × 10^5
Procedure: Human THP-1 cell line (TIB-202) (American Type Culture Collection, Manassas, Va.) was cultivated in RPMI-1640 medium with 10% of heat-inactivated fetal bovine serum (FBS, GEMINI B10-PRODUCTS, Sacramento, Calif.), at 37° C. with 5% CO2. The THP-1 cells were maintained in 75 cm^2 tissue culture flasks. The differentiation of THP-1 monocytes into macrophages with PMA (phorbol 12-myristate 13-acetate) (SIGMA ALDRICH) and intracellular antibiotic killing assays were performed as previously described (Rojony et al., Clinical proteomics 2019; 16:39). […] As a negative control, differentiated THP-1 cells were incubated without any antibiotics and with no metabolites. THP-1 cells were replenished with new media containing antibiotics, or no antibiotic, every other day. Cells were lysed at 2 h (baseline) and day 4 and subsequently the number of viable bacteria was determined by CFU counting on 7H10 agar plates.

[5] = cited from earlier work
MAH 3388 biofilm = test: Amikacin with short-chain fatty acids on biofilm of lung isolate MAH 3388; format: cell-based; settings: amikacin concentration: 4 mg/ml; untreated 9.4 +/− 0.2 × 10^7
Procedure: As a negative control, biofilms were incubated only with non-supplemented 7H9 without any antibiotics. […] Subsequently, 100 μl of 0.02% of Triton X-100 (final concentration 0.01%) was added to the established biofilms to mix, dilute and perform CFU analysis with the entire population of biofilms (attached and unattached).
Biofilms were established from an MAH strain isolated from the lungs of a patient (MAH 3388).

MAH 3393 biofilm = test: Amikacin with short-chain fatty acids on biofilm of lung isolate MAH 3393; format: cell-based; settings: amikacin concentration: 4 mg/ml; untreated 1.0 +/− 0.8 × 10^8

For `CCC(O)C(=O)O` (stereo not drawn) [α-Hydroxy Butyric acid], the “metabolized by biofilm cultures” value (MAH104 biofilms) was “unable to metabolize”.
In the case of `CC(=O)O` [Acetic Acid], the “lower capacity of biofilms to use the substrate compared with planktonic cultures” value (MAH104 biofilms) is reported as 2.55 fold.
With `CC(=O)CC(=O)O` [Acetoacetic acid] the “metabolized by biofilm cultures” value (MAH104 biofilms) was “unable to metabolize”.
For `CCC(=O)C(=O)O` [α-Keto-Butyric acid], the “metabolized by biofilm cultures” value (MAH104 biofilms) was “unable to metabolize”.
For polysorbate 80 [Tween 80], the “Planktonic (metabolite used)” value [1] was “+”, the “Biofilm (metabolite used)” value (MAH104 biofilms) was “+” and the “lower capacity of biofilms to use the substrate compared with planktonic cultures” value (MAH104 biofilms) was 3.45 fold.
For `CC(=O)C(=O)O` [Pyruvic acid], the “lower capacity of biofilms to use the substrate compared with planktonic cultures” value (MAH104 biofilms) was 2.21 fold.
In the case of `CCCCCC(=O)O` [Caproic acid], the “killing capacity of clarithromycin” value ([2]; established M. avium 104 biofilms, 72 hours, FIG. 4A-D) is reported as “increase”, the “CFU/ml at 14 days” value [2] is reported as 6.4 +/− 0.2 × 10^6*(1) CFU/ml and the “biofilm formation with 1% and 0.5% of fatty acid” value [3] is reported as “significant decrease”. The “O.D.570 nm of sessile MAH104 (crystal violet, biofilm formation)” value (sessile MAH104 cells) was 0.177±0.017, the “CFU/ml of macrophage lysate, 2 h” value [4] was 3.1 +/− 0.4 × 10^5 CFU/ml and the “CFU/ml of macrophage lysate, 4 days” value [4] was 5.3 +/− 0.4 × 10^5* (1) CFU/ml. The “lower capacity of biofilms to use the substrate compared with planktonic cultures” value (MAH104 biofilms) was 4.27 fold.
In the case of polysorbate 20 [Tween 20], the “Planktonic (metabolite used)” value [1] is reported as “+”, the “Biofilm (metabolite used)” value (MAH104 biofilms) is reported as “+” and the “lower capacity of biofilms to use the substrate compared with planktonic cultures” value (MAH104 biofilms) is reported as 5.4 fold.
In the case of `NC[C@H]1O[C@H](O[C@H]2[C@H](O)[C@@H](O[C@H]3O[C@H](CO)[C@@H](O)[C@H](N)[C@H]3O)[C@H](N)C[C@@H]2N)[C@H](N)C[C@@H]1O` [tobramycin], the “concentration in expectorated sputum (Mean)” value ([5]; 10 minutes after delivery of 300 mg by nebulizer) is given as 1,237 μg/g of sputum and the “concentration in the lung epithelial fluid (induced sputum)” value ([5]; after 300 mg delivered by nebulizer) is given as ~128 µg/g.
For `COC(=O)C(C)=O` [Methyl Pyruvate], the “lower capacity of biofilms to use the substrate compared with planktonic cultures” value (MAH104 biofilms) was 1.8 fold.
For `O=C(O)CCCCCCCCC(=O)O` [Sebacic acid], the “planktonic O.D.590 nm” value ([1]; Biolog plate, end-point) was 0.210±0.069 and the “Biofilm O.D.590 nm” value (MAH104 biofilms; Biolog plate, end-point) was 0.411±0.059.
With polysorbate 40 [Tween 40] the “Planktonic (metabolite used)” value [1] was “+”, the “Biofilm (metabolite used)” value (MAH104 biofilms) was “+” and the “lower capacity of biofilms to use the substrate compared with planktonic cultures” value (MAH104 biofilms) was 3.8 fold.
With `NCC[C@H](O)C(=O)N[C@@H]1C[C@H](N)[C@@H](O[C@H]2O[C@H](CN)[C@@H](O)[C@H](O)[C@H]2O)[C@H](O)[C@H]1O[C@H]1O[C@H](CO)[C@@H](O)[C@H](N)[C@H]1O` [Amikacin, reference compound] the “numbers of bacteria in biofilms” value [2] was 5.8±0.5×10^7, the “CFU/ml at 14 days” value [2] was 5.8 +/− 0.5 × 10^7*(1) CFU/ml and the “CFU/mL, MAH 3388” value (MAH 3388 biofilm) was 5.4 +/− 0.9 × 10^7*(1) CFU/mL. The “CFU/mL, MAH 3393” value (MAH 3393 biofilm) was 5.2 +/− 0.6 × 10^7*(1) CFU/mL, the “CFU/ml of macrophage lysate, 2 h” value [4] was 4.5 +/− 0.4 × 10^5 CFU/ml and the “CFU/ml of macrophage lysate, 4 days” value [4] was 4.8±0.5×10^4 CFU/ml and 4.8 +/− 0.5 × 10^4* (1) CFU/ml.
In the case of `CC[C@H]1OC(=O)[C@H](C)[C@@H](O[C@H]2C[C@@](C)(OC)[C@@H](O)[C@H](C)O2)[C@H](C)[C@@H](O[C@@H]2O[C@H](C)C[C@H](N(C)C)[C@H]2O)[C@](C)(OC)C[C@@H](C)C(=O)[C@H](C)[C@@H](O)[C@]1(C)O` [Clarithromycin, reference compound], the “numbers of bacteria in biofilms” value [2] is reported as 8.9±0.8×10^7, the “CFU/ml at 14 days” value [2] is reported as 8.9 +/− 0.8 × 10^7*(1) CFU/ml and the “CFU/ml of macrophage lysate, 2 h” value [4] is reported as 4.5 +/− 0.4 × 10^5 CFU/ml. The “CFU/ml of macrophage lysate, 4 days” value [4] was 3.9±0.3×10^4 CFU/ml and 3.9 +/− 0.3 × 10^4* (1) CFU/ml.
